# Test results reported in patent US10555919B2, “Melatonin in autoimmune disease” (The Brigham and Women's Hopsital, Inc., priority 2014, dated 2020).
# Columns and labels:
# [1] = test system: experimental autoimmune encephalitis (EAE) model of MS; assay: EAE in mice immunized with MOG35-55, treated daily with melatonin or vehicle; assay type: in vivo, C57BL/6 wild-type mice; details: melatonin 5 mg/kg intraperitoneally daily
# ROR-α = assay: Chromatin immunoprecipitation with anti-ROR-α at the il10 promoter; assay type: cell-based, mouse; details: T-cell activation under Tr1 polarizing conditions in the presence of melatonin
# Experimental: DNA-protein complexes in cells were crosslinked with 4% paraformaldehyde and lysed with 0.35 ml lysis buffer (1% SDS, 10 mM EDTA and 50 mM Tris-HCl, pH 8.1) containing 1×protease inhibitor ‘cocktail’ (Roche Molecular Biochemicals). Chromatin was sheared by sonication and supernatants collected after centrifugation were diluted in buffer (1% Triton X-100, 2 mM EDTA, 150 mM NaCl and 20 mM Tris-HCl, pH 8.1). 5 μg antibody was prebound for a minimum of 6 hs to protein A and protein G Dynal magnetic beads (Invitrogen) and samples were washed three times with ice-cold PBS containing 5% BSA, and then were added to the diluted chromatin, followed by immunoprecipitation overnight. The magnetic bead-chromatin complexes were then washed three times in radioimmunoprecipitation buffer (50 mM HEPES, pH 7.6, 1 mM EDTA, 0.7% Na deoxycholate, 1% NP-40 and 0.5 M LiCl), followed by two washes with Tris-EDTA buffer. Immunoprecipitated chromatin was then extracted with a solution of 1% SDS and 0.1 MNaHCO3 and was heated at 65° C. for at least 6 h for reversal of the paraformaldehyde cross-linking. DNA fragments were purified with a QIAquick DNA purification Kit (Qiagen) and were analyzed by SYBR Green real-time PCR (Takara Bio).
# CD4+ T cells = assay: Flow cytometry of T cell subsets from spleen, lymph nodes and CNS of EAE mice; assay type: in vivo, C57BL/6 wild-type mice; details: melatonin 5 mg/kg daily
# Experimental: For intracellular cytokine staining, cells were stimulated for 4 h at 37° C. with phorbol 12-myristate 13-acetate (50 ng/ml; Sigma), ionomycin (1 μg/ml; Sigma) and monensin (GolgiStop; 1 μg/ml; BD Biosciences). After being stained for surface markers, cells were fixed and made permeable according to the manufacturer's instructions (BD Biosciences). All antibodies against cytokines were from Biolegend. All experiments were started at the same time (8-9 am). Data were collected with a LSR II or FACSAria (BD Biosciences), then were analyzed with FlowJo software (Treestar). CNS infiltrates were isolated as described (Mascanfroni et al., 2013). Mice were perfused with ice-cold PBS. The brain and spinal cord were removed and incubated in PBS containing collagenase type III (2 mg/ml; Worthington) and DNase (20 units/ml; Sigma-Aldrich). Tissues were then homogenized and loaded on a 30%-37%-70% Percoll gradient for enrichment of CNS infiltrates. Based on our epidemiological findings, we studied the effects of melatonin on CNS inflammation using the experimental autoimmune […] (EAE) model of MS. Naïve C57BL/6 wild-type mice were immunized with MOG35-55 and treated daily with melatonin (5 mg/kg, intraperitoneally) or vehicle. Melatonin administration ameliorated EAE clinical symptoms (FIG. 2a, Table 2 and FIG. 7a).
# human Th1 cells = assay: In vitro human Th1 differentiation; assay type: cell-based; details: 500 ng/ml; IL-12
# Experimental: In vitro human T cell differentiation. For Th17 differentiation, naive CD45RA+ CD4+ T cells were isolated from PBMCs with magnetic beads (Naive Human CD4+ T Cell Isolation Kit II, Miltenyi Biotec) and seeded at a density of 5×10^5 cells/ml in 24-well plates coated with anti-CD3 and (2 μg/ml) and soluble anti-CD28 and cultured in the presence of the following cytokines IL-1β (25 ng/ml), IL-6 (50 ng/ml), and TGF-β1 (2 ng/ml) and neutralizing antibodies to IFN-g ([…]) and IL-4 (10 microgram/ml). Alternatively, Th17 cells were differentiated by using IL-1β (25 ng/ml), IL-6 (50 ng/ml), and IL-23 (50 ng/ml) and neutralizing antibodies to IFN-g ([…]) and IL-4 (10 microgram/ml). For Th1 differentiation naïve CD4+T cells are cultured in the presence of IL-12 (20 ng/ml) and anti-IL-4 (10 μg/ml).
# Tr1 cells = assay: In vitro mouse Tr1 cell differentiation; assay type: cell-based
# Experimental: Naive CD4+ T cells (CD4+CD44loCD62LhiCD25−) were from the spleen and lymph node of C57BL/6 wild-type, MTNR1A−, NFIL3−, REV-ERBα, C/EBPα-deficient or RORα-deficient mice using magnetic beads (CD4+ T cell isolation kit, Miltenyi Biotec). All experiments were started between 7 and 9 am. Cells were activated with plate-bound anti-CD3 (2 μg/ml; 14-0031-86; eBioscience) and anti-CD28 (2 μg/ml; 16-0281-86; eBioscience). Mouse IL-27 (30 ng/ml; 34-8271; Biolegend) was added for the generation of Tr1 cells. IL-6 (30 ng/ml; 406-ML-025; R&D Systems), TGF-β1 (15 ng/ml; 130-095-067; Miltenyi Biotec), anti-IL-4 (2.5 μg/ml; C17.8; Biolegend) and anti-IFN-γ (5 μg/ml; XMG1.2; Biolegend) were added for the generation of Th17 cells. Recombinant mouse IL-23 (30 ng/ml; 1887-ML-010; R&D Systems) was added at day 2. For some experiments IL-6 and […] (10 ng/ml; 401-ML-025; R&D Systems) or TGF-β1 and IL-21 (100 ng/ml; 594-ML-010; R&D Systems) were used in instead for Th17 cell differentiation. IL-12 (30 ng/ml; 419-ML-010; R&D Systems) and anti-IL-4 (2.5 μg/ml; C17.8; Biolegend) were used for the generation of Th1 cells. IL-4 (30 ng/ml; 404-ML-010; R&D Systems) and anti-IFN-γ (5 μg/ml; XMG1.2; Biolegend) was added for the generation of Th2 cells. TGF-β1 (15 ng/ml; 130-095-067; Miltenyi Biotec) was used for the generation of Foxp3+ Tregs. Melatonin (Gador, Argentina), Agomelatin, and CGP-52608 (Sigma-Aldrich) were added at the start of the cultures and at day 2, at a final concentration of 2-20 ng/ml.
structure (smiles),measurement,setting,value
"COc1ccc2[nH]cc(CCNC(C)=O)c2c1 [Melatonin, N-Acetyl-5-methoxytryptamine]",EAE clinical symptoms,[1],ameliorated
same,Mean onset day (mean ± sd),[1],11.8 ± 3.0 days
same,Mortality,[1],0/24
same,Mean maximum score (mean ± sd),[1]; **P < 0.05,2.06 ± 0.8**
same,Incidence (%),[1]; *P = 0.05,65%
same,Incidence (animals),[1]; *P = 0.05,17/24
same,binding of ROR-α to the il10 promoter,ROR-α,increased
same,IL-10 secreting CD4+ T cells,CD4+ T cells,increase
same,"number and frequency of Th17 cells in spleen, lymph nodes and CNS",CD4+ T cells,decreased number and frequency
same,"number or frequency of other T cell subsets, B cells, γδ T cells or innate lymphoid cells (ILCs)",CD4+ T cells,no significant changes
same,differentiation of human Th1 cells,human Th1 cells,no effect
same,"expression of IL-10 and the Tr1-associated molecules il21, ahr and cmaf","Tr1 cells; Tr1 polarizing conditions, melatonin 2 ng/ml",boosted
same,suppressive activity of Tr1 cells in vitro,"Tr1 cells; co-culture with CFSE-labeled CD4+ T cells, 48 hs",boosted
